Results as given in patent publication US12599136B2, “Substituted isophthalic acid diamides and their use as herbicides” (Bayer Aktiengesellschaft, priority 2020, dated 2026).

Experiments:
Assay type in all cases: in vivo
Pharbitis purpurea [1] = assay: Pre-emergence herbicidal action against PHBPU; conditions: 320 g/ha; visual score after 3 weeks vs untreated controls
Summary of the method: (§1)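 Pre-emergence soil-surface spray of formulated compound (WP or EC; 600 to 800 l/ha; 0.2% wetting agent) over seeds sown in sandy loam. After 3 weeks under greenhouse conditions, damage is estimated visually in percent against untreated plants.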

Setaria viridis [2] = assay: Post-emergence herbicidal action against SETVI; conditions: visual assessment about 3 weeks after treatment
Summary of the method: (§2)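 Greenhouse plants in sandy loam were sprayed at the one-leaf stage, 2 to 3 weeks after sowing, with WP or EC formulations as aqueous suspension or emulsion (600 to 800 l/ha water, 0.2% wetting agent). Visual damage was scored about 3 weeks later versus untreated controls, 0% = like control, 100% = dead.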

Viola tricolor [3] = assay: Post-emergence herbicidal action against VIOTR
Summary of the method: as §2

Echinochloa crus-galli [4] = assay: Pre-emergence herbicidal action against ECHCG; conditions: visual score after 3 weeks vs untreated controls
Summary of the method: as §1

Alopecurus myosuroides [5] = assay: Pre-emergence herbicidal action against ALOMY; conditions: visual score after 3 weeks vs untreated controls
Summary of the method: as §1

Amaranthus retroflexus [6] = assay: Post-emergence herbicidal action against AMARE; conditions: visual assessment about 3 weeks after treatment
Summary of the method: as §2

Viola tricolor [7] = assay: Pre-emergence herbicidal action against VIOTR
Summary of the method: as §1

Abutilon theophrasti [8] = assay: Post-emergence herbicidal action against ABUTH
Summary of the method: as §2

Pharbitis purpurea [9] = assay: Post-emergence herbicidal action against PHBPU; conditions: visual assessment about 3 weeks after treatment
Summary of the method: as §2

Avena fatua [10] = assay: Pre-emergence herbicidal action against AVEFA; conditions: visual score after 3 weeks vs untreated controls
Summary of the method: as §1

Alopecurus myosuroides [11] = assay: Post-emergence herbicidal action against ALOMY
Summary of the method: as §2

Stellaria media [12] = assay: Post-emergence herbicidal action against STEME; conditions: visual assessment about 3 weeks after treatment
Summary of the method: as §2

Lolium rigidum [13] = assay: Pre-emergence herbicidal action against LOLRI; conditions: 320 g/ha
Summary of the method: as §1

Cyperus esculentus [14] = assay: Post-emergence herbicidal action against CYPES; conditions: visual assessment about 3 weeks after treatment
Summary of the method: as §2

Matricaria inodora [15] = assay: Pre-emergence herbicidal action against MATIN; conditions: visual score after 3 weeks vs untreated controls
Summary of the method: as §1

Matricaria inodora [16] = assay: Post-emergence herbicidal action against MATIN; conditions: visual assessment about 3 weeks after treatment
Summary of the method: as §2

Veronica persica [17] = assay: Post-emergence herbicidal action against VERPE; conditions: visual assessment about 3 weeks after treatment
Summary of the method: as §2

Amaranthus retroflexus [18] = assay: Pre-emergence herbicidal action against AMARE; conditions: visual score after 3 weeks vs untreated controls
Summary of the method: as §1

Hordeum murinum [19] = assay: Pre-emergence herbicidal action against HORMU; conditions: 320 g/ha; visual score after 3 weeks vs untreated controls
Summary of the method: as §1

Cyperus esculentus [20] = assay: Pre-emergence herbicidal action against CYPES; conditions: visual score after 3 weeks vs untreated controls
Summary of the method: as §1

Setaria viridis [21] = assay: Pre-emergence herbicidal action against SETVI
Summary of the method: as §1

Hordeum murinum [22] = assay: Post-emergence herbicidal action against HORMU
Summary of the method: as §2

Veronica persica [23] = assay: Pre-emergence herbicidal action against VERPE
Summary of the method: as §1

Stellaria media [24] = assay: Pre-emergence herbicidal action against STEME
Summary of the method: as §1

Echinochloa crus-galli [25] = assay: Post-emergence herbicidal action against ECHCG; conditions: visual assessment about 3 weeks after treatment
Summary of the method: as §2

Polygonum convolvulus [26] = assay: Pre-emergence herbicidal action against POLCO; conditions: 320 g/ha
Summary of the method: as §1

Abutilon theophrasti [27] = assay: Pre-emergence herbicidal action against ABUTH; conditions: visual score after 3 weeks vs untreated controls
Summary of the method: as §1

Polygonum convolvulus [28] = assay: Post-emergence herbicidal action against POLCO; conditions: 80 g/ha, visual assessment about 3 weeks after treatment
Summary of the method: as §2

Avena fatua [29] = assay: Post-emergence herbicidal action against AVEFA; conditions: visual assessment about 3 weeks after treatment
Summary of the method: as §2

Lolium rigidum [30] = assay: Post-emergence herbicidal action against LOLRI; conditions: 80 g/ha
Summary of the method: as §2

For `CCn1nnnc1NC(=O)c1ccc(C(F)(F)F)c(C(=O)N(C)CC2CC2)c1Cl` [Example 2-126], the “Pre-emergence action against PHBPU” value (Pharbitis purpurea [1]) was 100%, the “Post-emergence action against SETVI in %” value (Setaria viridis [2]; 5 g/ha) was 100% and the “Post-emergence action against SETVI in %” value (Setaria viridis [2]; 20 g/ha) was 100%. The “Post-emergence action against SETVI in %” value (Setaria viridis [2]; 80 g/ha) was 100%, the “Post-emergence action against VIOTR in %” value (Viola tricolor [3]; 5 g/ha) was 100% and the “Post-emergence action against VIOTR in %” value (Viola tricolor [3]; 20 g/ha) was 100%. For the same molecule, the “Post-emergence action against VIOTR in %” value (Viola tricolor [3]; 80 g/ha) was 100%, the “Pre-emergence action against ECHCG” value (Echinochloa crus-galli [4]; 80 g/ha) was 80% and the “Pre-emergence action against ECHCG” value (Echinochloa crus-galli [4]; 320 g/ha) was 100%. For the same molecule, the “Pre-emergence action against ALOMY” value (Alopecurus myosuroides [5]; 80 g/ha) was 80%, the “Pre-emergence action against ALOMY” value (Alopecurus myosuroides [5]; 320 g/ha) was 100% and the “Post-emergence action against AMARE in %” value (Amaranthus retroflexus [6]; 5 g/ha) was 100%. For the same molecule, the “Post-emergence action against AMARE in %” value (Amaranthus retroflexus [6]; 20 g/ha) was 100%, the “Post-emergence action against AMARE in %” value (Amaranthus retroflexus [6]; 80 g/ha) was 100% and the “Pre-emergence action against VIOTR” value (Viola tricolor [7]; 20 g/ha) was 80%. The “Pre-emergence action against VIOTR” value (Viola tricolor [7]; 80 g/ha) was 100%, the “Pre-emergence action against VIOTR” value (Viola tricolor [7]; 320 g/ha) was 100% and the “Post-emergence action against ABUTH” value (Abutilon theophrasti [8]; 5 g/ha) was 80%. For the same molecule, the “Post-emergence action against ABUTH” value (Abutilon theophrasti [8]; 20 g/ha) was 100%, the “Post-emergence action against ABUTH” value (Abutilon theophrasti [8]; 80 g/ha) was 100% and the “Post-emergence action against PHBPU in %” value (Pharbitis purpurea [9]; 5 g/ha) was 90%. For the same molecule, the “Post-emergence action against PHBPU in %” value (Pharbitis purpurea [9]; 20 g/ha) was 100%, the “Post-emergence action against PHBPU in %” value (Pharbitis purpurea [9]; 80 g/ha) was 100% and the “Pre-emergence action against AVEFA” value (Avena fatua [10]; 80 g/ha) was 80%. For the same molecule, the “Pre-emergence action against AVEFA” value (Avena fatua [10]; 320 g/ha) was 100%, the “Post-emergence action against ALOMY” value (Alopecurus myosuroides [11]; 5 g/ha) was 80% and the “Post-emergence action against ALOMY” value (Alopecurus myosuroides [11]; 20 g/ha) was 90%. For the same molecule, the “Post-emergence action against ALOMY” value (Alopecurus myosuroides [11]; 80 g/ha) was 100%, the “Post-emergence action against STEME in %” value (Stellaria media [12]; 5 g/ha) was 100% and the “Post-emergence action against STEME in %” value (Stellaria media [12]; 20 g/ha) was 100%. For the same molecule, the “Post-emergence action against STEME in %” value (Stellaria media [12]; 80 g/ha) was 100%, the “Pre-emergence action against LOLRI” value (Lolium rigidum [13]) was 90% and the “Post-emergence action against CYPES in %” value (Cyperus esculentus [14]; 20 g/ha) was 80%. For the same molecule, the “Post-emergence action against CYPES in %” value (Cyperus esculentus [14]; 80 g/ha) was 90%, the “Pre-emergence action against MATIN” value (Matricaria inodora [15]; 20 g/ha) was 80% and the “Pre-emergence action against MATIN” value (Matricaria inodora [15]; 80 g/ha) was 90%. The “Pre-emergence action against MATIN” value (Matricaria inodora [15]; 320 g/ha) was 100%, the “Post-emergence action against MATIN in %” value (Matricaria inodora [16]; 5 g/ha) was 80% and the “Post-emergence action against MATIN in %” value (Matricaria inodora [16]; 20 g/ha) was 100%. For the same molecule, the “Post-emergence action against MATIN in %” value (Matricaria inodora [16]; 80 g/ha) was 100%, the “Post-emergence action against VERPE in %” value (Veronica persica [17]; 20 g/ha) was 80% and the “Post-emergence action against VERPE in %” value (Veronica persica [17]; 80 g/ha) was 90%. The “Pre-emergence action against AMARE” value (Amaranthus retroflexus [18]; 20 g/ha) was 90%, the “Pre-emergence action against AMARE” value (Amaranthus retroflexus [18]; 80 g/ha) was 100% and the “Pre-emergence action against AMARE” value (Amaranthus retroflexus [18]; 320 g/ha) was 100%. For the same molecule, the “Pre-emergence action against HORMU” value (Hordeum murinum [19]) was 100%, the “Pre-emergence action against CYPES” value (Cyperus esculentus [20]; 80 g/ha) was 80% and the “Pre-emergence action against CYPES” value (Cyperus esculentus [20]; 320 g/ha) was 90%. For the same molecule, the “Pre-emergence action against SETVI” value (Setaria viridis [21]; 80 g/ha) was 100%, the “Pre-emergence action against SETVI” value (Setaria viridis [21]; 320 g/ha) was 100% and the “Post-emergence action against HORMU in %” value (Hordeum murinum [22]; 5 g/ha) was 80%. The “Post-emergence action against HORMU in %” value (Hordeum murinum [22]; 20 g/ha) was 90%, the “Post-emergence action against HORMU in %” value (Hordeum murinum [22]; 80 g/ha) was 100% and the “Pre-emergence action against VERPE” value (Veronica persica [23]; 80 g/ha) was 80%. For the same molecule, the “Pre-emergence action against VERPE” value (Veronica persica [23]; 320 g/ha) was 90%, the “Pre-emergence action against STEME” value (Stellaria media [24]; 20 g/ha) was 80% and the “Pre-emergence action against STEME” value (Stellaria media [24]; 320 g/ha) was 90%. For the same molecule, the “Post-emergence action against ECHCG in %” value (Echinochloa crus-galli [25]; 5 g/ha) was 90%, the “Post-emergence action against ECHCG in %” value (Echinochloa crus-galli [25]; 20 g/ha) was 100% and the “Post-emergence action against ECHCG in %” value (Echinochloa crus-galli [25]; 80 g/ha) was 100%. The “Pre-emergence action against POLCO” value (Polygonum convolvulus [26]) was 100%, the “Pre-emergence action against ABUTH” value (Abutilon theophrasti [27]; 20 g/ha) was 100% and the “Pre-emergence action against ABUTH” value (Abutilon theophrasti [27]; 80 g/ha) was 100%. The “Pre-emergence action against ABUTH” value (Abutilon theophrasti [27]; Dosage column 320 g/ha (heading prints 3200 g/ha)) was 100%, the “Post-emergence action against POLCO in %” value (Polygonum convolvulus [28]) was 80% and the “Post-emergence action against AVEFA in %” value (Avena fatua [29]; 20 g/ha) was 100%. The “Post-emergence action against AVEFA in %” value (Avena fatua [29]; 80 g/ha) was 100% and the “Post-emergence action against LOLRI in %” value (Lolium rigidum [30]) was 80%.
